Measurements reported in ChEMBL document CHEMBL1139192, “Novel bis(indolyl)maleimide pyridinophanes that are potent, selective inhibitors of glycogen synthase kinase-3” (Bioorg Med Chem Lett, 2007).

How the values were obtained:
[1] = species: Homo sapiens; assay: Inhibition of human PKA at 1 uM relative to control; values are per cent of control
[2] = biological target: Tyrosine-protein kinase Yes (Homo sapiens) (UniProt P07947); assay: Inhibition of human Yes kinase at 1 uM relative to control; values are per cent of control
Tyrosine-protein kinase Yes (Homo sapiens), sequence (P07947 2-543 limits assumed): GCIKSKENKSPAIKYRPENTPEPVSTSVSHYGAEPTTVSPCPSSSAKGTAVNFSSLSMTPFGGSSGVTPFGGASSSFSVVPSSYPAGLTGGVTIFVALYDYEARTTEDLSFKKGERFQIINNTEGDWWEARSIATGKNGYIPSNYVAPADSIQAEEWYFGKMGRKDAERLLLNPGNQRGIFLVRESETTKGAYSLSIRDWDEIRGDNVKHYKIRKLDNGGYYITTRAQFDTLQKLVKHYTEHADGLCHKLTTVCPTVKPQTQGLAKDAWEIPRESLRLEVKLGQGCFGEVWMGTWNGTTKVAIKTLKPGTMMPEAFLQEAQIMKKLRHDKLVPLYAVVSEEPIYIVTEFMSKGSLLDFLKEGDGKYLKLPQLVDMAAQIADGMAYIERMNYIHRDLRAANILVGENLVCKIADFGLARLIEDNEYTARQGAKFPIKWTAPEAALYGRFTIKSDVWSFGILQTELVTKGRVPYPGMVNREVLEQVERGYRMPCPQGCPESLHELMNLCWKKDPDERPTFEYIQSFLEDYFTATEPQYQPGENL

[3] = biological target: Tyrosine-protein kinase ABL1 (Mus musculus) (UniProt P00520); assay: Residual activity of mouse Abl kinase at 1 uM relative to control
[4] = species: Homo sapiens; assay: Residual activity of human CDK2/Cyclin A at 1 uM relative to control
[5] = biological target: Protein kinase C alpha type (Homo sapiens) (UniProt P17252); assay: Residual activity of human PKCalpha at 1 uM relative to control
[6] = biological target: Mitogen-activated protein kinase 8 (Homo sapiens) (UniProt P45983); assay: Inhibition of human JNK1alpha1 at 1 uM relative to control; values are per cent of control
[7] = biological target: Mitogen-activated protein kinase 9 (Homo sapiens) (UniProt P45984); assay: Inhibition of human JNK2-alpha-2 at 1 uM relative to control; values are per cent of control
[8] = biological target: Rho-associated protein kinase 2 (Homo sapiens) (UniProt O75116); assay: Inhibition of human ROCK2 at 1 uM relative to control; values are per cent of control
[9] = biological target: Insulin-like growth factor 1 receptor (Homo sapiens) (UniProt P08069); assay: Residual activity of human IGF1R at 1 uM relative to control
Insulin-like growth factor 1 receptor (Homo sapiens), sequence (P08069 31-736 limits assumed): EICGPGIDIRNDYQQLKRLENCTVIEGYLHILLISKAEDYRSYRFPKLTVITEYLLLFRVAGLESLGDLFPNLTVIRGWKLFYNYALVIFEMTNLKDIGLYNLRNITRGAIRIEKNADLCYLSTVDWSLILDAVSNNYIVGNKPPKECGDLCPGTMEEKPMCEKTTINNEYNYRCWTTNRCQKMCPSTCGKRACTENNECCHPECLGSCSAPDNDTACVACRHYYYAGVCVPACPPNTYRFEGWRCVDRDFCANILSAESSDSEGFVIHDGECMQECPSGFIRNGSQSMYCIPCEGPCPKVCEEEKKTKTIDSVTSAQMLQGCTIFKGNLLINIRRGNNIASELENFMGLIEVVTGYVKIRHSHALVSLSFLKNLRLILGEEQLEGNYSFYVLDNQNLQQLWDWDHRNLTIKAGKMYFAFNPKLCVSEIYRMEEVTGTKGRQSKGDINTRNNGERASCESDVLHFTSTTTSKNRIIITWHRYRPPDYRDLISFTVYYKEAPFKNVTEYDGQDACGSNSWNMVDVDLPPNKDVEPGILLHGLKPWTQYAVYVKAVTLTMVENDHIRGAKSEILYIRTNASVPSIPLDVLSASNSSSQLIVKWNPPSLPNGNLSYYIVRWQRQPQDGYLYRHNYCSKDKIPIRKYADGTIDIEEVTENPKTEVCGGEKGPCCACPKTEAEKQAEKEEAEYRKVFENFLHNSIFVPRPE
Insulin-like growth factor 1 receptor (Homo sapiens), sequence (P08069 741-1367 limits assumed): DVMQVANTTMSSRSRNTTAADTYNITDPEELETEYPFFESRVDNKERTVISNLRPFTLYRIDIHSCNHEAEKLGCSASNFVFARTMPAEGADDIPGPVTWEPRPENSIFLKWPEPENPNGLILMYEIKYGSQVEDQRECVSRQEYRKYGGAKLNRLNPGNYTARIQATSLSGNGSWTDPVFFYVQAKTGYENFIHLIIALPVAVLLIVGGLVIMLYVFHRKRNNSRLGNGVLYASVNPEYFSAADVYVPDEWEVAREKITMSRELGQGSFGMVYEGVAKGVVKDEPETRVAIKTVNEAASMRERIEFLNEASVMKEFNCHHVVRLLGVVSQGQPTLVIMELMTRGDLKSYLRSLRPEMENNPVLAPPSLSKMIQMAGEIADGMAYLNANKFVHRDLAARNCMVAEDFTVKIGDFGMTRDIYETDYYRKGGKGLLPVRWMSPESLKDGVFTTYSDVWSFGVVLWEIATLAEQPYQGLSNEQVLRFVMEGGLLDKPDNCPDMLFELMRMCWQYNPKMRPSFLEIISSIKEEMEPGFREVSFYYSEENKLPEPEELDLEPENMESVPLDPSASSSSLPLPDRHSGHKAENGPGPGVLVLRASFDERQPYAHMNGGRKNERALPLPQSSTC

[10] = species: Homo sapiens; assay: Inhibition of human CDK2/Cyclin E at 1 uM relative to control; values are per cent of control
[11] = biological target: Glycogen synthase kinase-3 alpha (Homo sapiens) (UniProt P49840); assay: Inhibition of human GSK3alpha relative to control; values are per cent of control
Glycogen synthase kinase-3 alpha (Homo sapiens), sequence (P49840 2-483 limits assumed): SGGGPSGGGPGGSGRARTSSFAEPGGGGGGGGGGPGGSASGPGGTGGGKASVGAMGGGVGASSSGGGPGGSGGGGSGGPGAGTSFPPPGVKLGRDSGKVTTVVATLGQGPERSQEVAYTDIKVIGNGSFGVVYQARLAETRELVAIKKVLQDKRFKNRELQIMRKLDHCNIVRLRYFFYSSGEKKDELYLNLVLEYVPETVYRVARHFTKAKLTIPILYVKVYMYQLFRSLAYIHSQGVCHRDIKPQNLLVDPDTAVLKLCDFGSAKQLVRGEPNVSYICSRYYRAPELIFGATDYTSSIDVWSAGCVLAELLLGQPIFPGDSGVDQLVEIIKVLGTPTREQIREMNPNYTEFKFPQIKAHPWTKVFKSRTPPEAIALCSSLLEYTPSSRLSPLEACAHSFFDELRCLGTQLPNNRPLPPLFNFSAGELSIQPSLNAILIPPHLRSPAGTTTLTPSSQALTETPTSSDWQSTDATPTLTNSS

[12] = biological target: T1, Protein kinase C iota type (Homo sapiens) (UniProt P41743); assay: Inhibition of human PKCiota at 1 uM relative to control; values are per cent of control
T1 sequence (whole entry): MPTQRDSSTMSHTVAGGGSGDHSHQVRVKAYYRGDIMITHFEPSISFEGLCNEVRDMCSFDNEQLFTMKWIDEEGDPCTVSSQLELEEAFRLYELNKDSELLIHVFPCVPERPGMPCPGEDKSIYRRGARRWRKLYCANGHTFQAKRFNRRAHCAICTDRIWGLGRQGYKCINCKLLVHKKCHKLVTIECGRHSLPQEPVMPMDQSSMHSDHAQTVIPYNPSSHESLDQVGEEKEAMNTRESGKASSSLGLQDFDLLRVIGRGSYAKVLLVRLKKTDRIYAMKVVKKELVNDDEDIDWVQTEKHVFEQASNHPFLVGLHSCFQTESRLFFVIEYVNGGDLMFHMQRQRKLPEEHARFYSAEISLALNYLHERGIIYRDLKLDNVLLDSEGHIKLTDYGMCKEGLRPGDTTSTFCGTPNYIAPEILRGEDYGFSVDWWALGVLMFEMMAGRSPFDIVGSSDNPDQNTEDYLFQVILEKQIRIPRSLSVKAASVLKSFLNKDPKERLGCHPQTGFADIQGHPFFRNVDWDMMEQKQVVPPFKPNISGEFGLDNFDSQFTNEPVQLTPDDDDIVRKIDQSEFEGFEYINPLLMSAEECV

[13] = biological target: T2, Dual specificity mitogen-activated protein kinase kinase 6 (Homo sapiens) (UniProt P52564); assay: Inhibition of human MKK6 at 1 uM relative to control; values are per cent of control
T2 sequence (whole entry): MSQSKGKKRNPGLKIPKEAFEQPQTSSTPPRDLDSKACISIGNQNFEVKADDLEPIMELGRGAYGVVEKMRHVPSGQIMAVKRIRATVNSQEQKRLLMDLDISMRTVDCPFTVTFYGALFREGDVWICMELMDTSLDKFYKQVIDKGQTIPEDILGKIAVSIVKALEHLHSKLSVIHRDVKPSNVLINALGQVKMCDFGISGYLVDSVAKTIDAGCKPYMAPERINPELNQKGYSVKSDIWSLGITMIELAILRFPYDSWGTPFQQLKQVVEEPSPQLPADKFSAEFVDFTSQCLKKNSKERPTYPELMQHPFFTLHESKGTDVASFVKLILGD

[14] = biological target: Protein kinase C gamma type (Homo sapiens) (UniProt P05129); assay: Residual activity of human PKCgamma at 1 uM relative to control
[15] = biological target: T3, Mitogen-activated protein kinase 12 (Homo sapiens) (UniProt P53778); assay: Inhibition of human SAPK3 at 1 uM relative to control; values are per cent of control
T3 sequence (whole entry): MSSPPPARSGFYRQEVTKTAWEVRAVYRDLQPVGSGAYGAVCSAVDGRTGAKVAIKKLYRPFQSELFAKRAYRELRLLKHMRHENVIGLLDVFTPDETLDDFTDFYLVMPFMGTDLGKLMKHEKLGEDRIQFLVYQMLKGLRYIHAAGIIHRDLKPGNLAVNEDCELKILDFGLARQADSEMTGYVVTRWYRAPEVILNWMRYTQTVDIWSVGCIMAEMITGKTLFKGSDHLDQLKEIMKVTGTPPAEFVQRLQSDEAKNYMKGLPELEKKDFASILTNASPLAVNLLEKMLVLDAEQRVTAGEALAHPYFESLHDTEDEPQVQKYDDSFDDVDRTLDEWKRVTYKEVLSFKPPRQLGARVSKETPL

[16] = biological target: Ribosomal protein S6 kinase alpha-5 (Homo sapiens, UniProt O75582); assay: Inhibition of human MSK1 at 1 uM relative to control; values are per cent of control
Ribosomal protein S6 kinase alpha-5, sequence (O75582 whole entry, looked up): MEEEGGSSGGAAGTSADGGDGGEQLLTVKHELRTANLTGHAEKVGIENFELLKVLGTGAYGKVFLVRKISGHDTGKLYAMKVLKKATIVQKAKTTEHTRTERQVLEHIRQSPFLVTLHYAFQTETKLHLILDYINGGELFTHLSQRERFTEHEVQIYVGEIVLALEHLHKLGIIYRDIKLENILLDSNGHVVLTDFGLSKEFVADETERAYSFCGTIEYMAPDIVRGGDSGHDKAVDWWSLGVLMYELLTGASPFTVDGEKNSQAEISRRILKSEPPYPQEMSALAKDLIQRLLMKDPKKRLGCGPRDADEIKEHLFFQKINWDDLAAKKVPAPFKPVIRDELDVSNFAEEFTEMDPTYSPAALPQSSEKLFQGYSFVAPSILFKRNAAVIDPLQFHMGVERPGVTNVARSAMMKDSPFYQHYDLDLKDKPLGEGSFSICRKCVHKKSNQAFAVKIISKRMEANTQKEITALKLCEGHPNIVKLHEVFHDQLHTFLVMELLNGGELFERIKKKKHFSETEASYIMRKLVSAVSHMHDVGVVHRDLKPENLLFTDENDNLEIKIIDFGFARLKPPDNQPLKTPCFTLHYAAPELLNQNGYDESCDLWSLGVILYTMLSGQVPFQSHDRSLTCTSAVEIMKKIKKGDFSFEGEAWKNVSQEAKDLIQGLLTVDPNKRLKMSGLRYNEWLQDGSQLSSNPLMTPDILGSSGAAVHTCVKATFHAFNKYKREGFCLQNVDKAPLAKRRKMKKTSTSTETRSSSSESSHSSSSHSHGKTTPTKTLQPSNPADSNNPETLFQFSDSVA

[17] = biological target: Platelet-derived growth factor receptor alpha (Homo sapiens) (UniProt P16234); assay: Inhibition of human PDGFRalpha at 1 uM relative to control; values are per cent of control
Platelet-derived growth factor receptor alpha (Homo sapiens), sequence (P16234 whole entry): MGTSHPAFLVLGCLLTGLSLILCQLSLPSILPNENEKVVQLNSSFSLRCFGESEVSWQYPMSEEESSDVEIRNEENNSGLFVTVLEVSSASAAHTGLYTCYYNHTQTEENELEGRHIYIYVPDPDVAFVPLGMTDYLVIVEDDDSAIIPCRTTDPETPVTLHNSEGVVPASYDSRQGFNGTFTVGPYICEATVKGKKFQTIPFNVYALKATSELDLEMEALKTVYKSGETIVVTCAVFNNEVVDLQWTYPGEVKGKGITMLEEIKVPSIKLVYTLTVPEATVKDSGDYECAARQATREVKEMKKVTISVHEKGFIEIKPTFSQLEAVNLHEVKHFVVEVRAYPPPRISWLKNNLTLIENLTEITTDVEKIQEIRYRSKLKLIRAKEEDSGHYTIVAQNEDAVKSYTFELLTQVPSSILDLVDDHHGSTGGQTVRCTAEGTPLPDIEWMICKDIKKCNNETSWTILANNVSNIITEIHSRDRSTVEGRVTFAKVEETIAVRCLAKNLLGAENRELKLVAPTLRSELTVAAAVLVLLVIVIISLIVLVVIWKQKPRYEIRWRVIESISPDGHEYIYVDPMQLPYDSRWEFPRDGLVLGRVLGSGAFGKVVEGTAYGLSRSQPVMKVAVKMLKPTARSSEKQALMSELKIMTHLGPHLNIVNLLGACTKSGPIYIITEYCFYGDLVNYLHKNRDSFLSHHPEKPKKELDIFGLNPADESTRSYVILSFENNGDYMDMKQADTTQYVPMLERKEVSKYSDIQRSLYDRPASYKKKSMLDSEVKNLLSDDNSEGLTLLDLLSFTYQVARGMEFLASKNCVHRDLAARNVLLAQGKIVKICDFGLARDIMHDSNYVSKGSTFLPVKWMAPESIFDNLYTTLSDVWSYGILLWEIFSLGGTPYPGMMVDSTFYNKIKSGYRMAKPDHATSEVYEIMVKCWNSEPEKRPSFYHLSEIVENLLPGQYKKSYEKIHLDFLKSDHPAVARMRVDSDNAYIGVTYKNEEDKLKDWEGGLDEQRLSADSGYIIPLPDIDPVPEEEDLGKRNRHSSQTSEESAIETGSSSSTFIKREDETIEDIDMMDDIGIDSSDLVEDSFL

[18] = biological target: BDNF/NT-3 growth factors receptor (Homo sapiens, UniProt Q16620); assay: Residual activity of human TrkB at 1 uM relative to control

Structure (SMILES): CN(C)c1nc2ccc1CCCn1cc(c3ccccc31)C1=C(C(=O)NC1=O)c1cn(c3ccccc13)CC2
- residual activity [1]: 90%
- residual activity [2]: 96%
- residual activity [3]: 98%
- residual activity [4]: 120%
- residual activity [5]: 68%
- residual activity [6]: 102%
- residual activity [7]: 96%
- residual activity [8]: 110%
- residual activity [9]: 84%
- residual activity [10]: 54%
- residual activity [11]: 4%
- residual activity [12]: 85%
- residual activity [13]: 102%
- residual activity [14]: 91%
- residual activity [15]: 78%
- residual activity [16]: 36%
- residual activity [17]: 107%

Structure (SMILES): CN(C)c1cc2cc(n1)CCCn1cc(c3ccccc31)C1=C(C(=O)NC1=O)c1cn(c3ccccc13)CCC2
- residual activity [1]: 95%
- residual activity [2]: 79%
- residual activity [3]: 108%
- residual activity [4]: 80%
- residual activity [5]: 74%
- residual activity [6]: 105%
- residual activity [7]: 106%
- residual activity [18]: 98%
- residual activity [8]: 103%
- residual activity [9]: 37%
- residual activity [10]: 84%
- residual activity [11]: 3%
- residual activity [12]: 109%
- residual activity [13]: 86%
- residual activity [14]: 107%
- residual activity [15]: 115%
- residual activity [16]: 58%
- residual activity [17]: 119%

Structure (SMILES): O=C1NC(=O)C2=C1c1cn(c3ccccc13)CCCc1ccc(c(N3CCCC3)n1)CCCn1cc2c2ccccc21
- residual activity [1]: 102%
- residual activity [2]: 43%
- residual activity [3]: 110%
- residual activity [4]: 88%
- residual activity [5]: 83%
- residual activity [6]: 104%
- residual activity [7]: 110%
- residual activity [18]: 106%
- residual activity [8]: 104%
- residual activity [9]: 106%
- residual activity [10]: 88%
- residual activity [11]: 9%
- residual activity [12]: 97%
- residual activity [13]: 85%
- residual activity [14]: 102%
- residual activity [15]: 114%
- residual activity [16]: 104%
- residual activity [17]: 113%

Structure (SMILES): O=C1NC(=O)C2=C1c1cn(c3ccccc13)CCCc1cc(nc(N3CCCC3)c1)CCCn1cc2c2ccccc21
- residual activity [1]: 104%
- residual activity [2]: 58%
- residual activity [3]: 104%
- residual activity [4]: 88%
- residual activity [5]: 82%
- residual activity [6]: 108%
- residual activity [7]: 114%
- residual activity [18]: 105%
- residual activity [8]: 107%
- residual activity [9]: 42%
- residual activity [10]: 88%
- residual activity [11]: 4%
- residual activity [12]: 102%
- residual activity [13]: 91%
- residual activity [14]: 99%
- residual activity [15]: 103%
- residual activity [16]: 38%
- residual activity [17]: 126%
